Experimental data as given in EP0013144A1, “Substituted diphenylamine derivatives, compositions and herbicidal uses thereof, and processes for their preparation” (ICI AUSTRALIA LIMITED, priority 1978, dated 1980).

Assays:
Format in all cases: in vivo
Ryegrass [1] = test: Pre-emergence herbicidal activity (Example 31); parameters: key: 0-3 scale: 0 = 0-25% damage, 3 = 75-99% kill, 3+ = 100% kill; settings: after three weeks
Experimental: (§1) Concentrated formulations of the compounds of the invention were prepared by: • a) in the case of oils and waxy solids, dissolving the compound in toluene containing 7% v/v "Teric" N13 ("Teric" is a Trade MarK and "Teric" N13, a product of ethoxylation of nonylphenol, is available from ICI Australia Limited) and 3% v/v "Kemmat" SC15B ("Kemmat" is a Trade Mark and "Kemmat" SC15B is a formulation of calcium dodecylbenzene sulfonate); or • b) in the case of crystalline solids, adding 5 parts by weight of the compound and 1 part by weight of . ''Dyapol" PT ("Dyapol" is a Trade Mark and "Dyapol" PT is an anionic suspending agent) to 94 parts by weight of an aqueous solution containing 0.25% v/v of "Teric" N8 (a product of ethoxylation of nonylphenol) and ball-milling the mixture to produce a stable suspension. The emulsifiable concentrates and suspensions were then diluted with water to give an aqueous composition of the required concentration suitable for use in the evaluation of the pre-emergence and post-emergence herbicidal activity of the compounds of the invention.
(§2) The pre-emergent herbicidal activity of the compounds of the invention formulated as described in Example 30 was assessed by the following procedure.
(§3) The seeds of the test species were sown in rows 2 cm deep in soil contained in seed boxes. The monocotyledonous plants and the dicotyledonous plants were sprayed with the required quantity of a composition of the invention. Two duplicate seed Doxes were prepared in the same manner but were not sprayed with a composition of the invention and were used for comparison purposes. All the boxes were placed in a glasshouse, lightly watered with an overhead spray to initiate germination and then sub-irrigated as required for optimum plant growth. After three weeks the boxes were removed from the glasshouse and the effect of the treatment was visually assessed. The results are presented in Table 3 where the damage to plants is rated on a scale of from 0 to 3 where 0 represents from 0 to 25% damage, 3 represents 75 to 99% kill and 3+ represents 100% kill.
(§4) A dash (-) means that no experiment was carried out.

Wheat [2] = test: Pre-emergence herbicidal activity (Example 31); parameters: key: 0-3 scale: 0 = 0-25% damage, 3 = 75-99% kill, 3+ = 100% kill; settings: after three weeks
Experimental: as §1, §2, §3, §4

Ipomea [3] = test: Pre-emergence herbicidal activity (Example 31); settings: after three weeks
Experimental: as §1, §2, §3, §4

Japanese millet [4] = test: Pre-emergence herbicidal activity (Example 31); settings: after three weeks
Experimental: as §1, §2, §3, §4

Mustard [5] = test: Pre-emergence herbicidal activity (Example 31); settings: after three weeks
Experimental: as §1, §2, §3, §4

Sunflower [6] = test: Pre-emergence herbicidal activity (Example 31); settings: after three weeks
Experimental: as §1, §2, §3, §4

Wild Oats [7] = test: Pre-emergence herbicidal activity (Example 31); settings: after three weeks
Experimental: as §1, §2, §3, §4

Wheat [8] = test: Post-emergence herbicidal activity (Example 32); parameters: key: 0-3 scale: 0 = 0-25% damage, 3 = 75-99% kill, 3+ = 100% kill; settings: 3 weeks after spraying
Experimental: as §1
(§5) The post-emergent herbicidal activity of the compounds of the invention formulated as described in Example 30 was assessed by the following procedure.
(§6) The seeds of the test species were sown in rows 2 cm deep in soil contained in seed boxes. The monocotyledonous plants and the dicotyledonous plants were sown in separate seed boxes in duplicate. The four seed boxes were placed in a glasshouse, lightly watered with an overhead spray to initiate germination and then sub-irrigated as required for optimum plant growth. After the plants had grown to a height of about 10 to 12.5 cm one box of each of the monocotyledonous plants and the dicotyledonous plants was removed from the glasshouse and sprayed with the required quantity of a composition of the invention. After spraying the boxes were returned to the glasshouse for further 3 weeks and the effects of the treatment was visually assessed by comparison with the untreated controls. The results are presented in Table 4 where the damage to plants is rated on a scale of from 0 to 3 where 0 represents 0 to 25% damage, 3 represents 75 to 99% kill and 3+ represents 100% kill. A dash (-) means that no experiment was carried out.

Ipomea [9] = test: Post-emergence herbicidal activity (Example 32); settings: 3 weeks after spraying
Experimental: as §1, §5, §6

Japanese millet [10] = test: Post-emergence herbicidal activity (Example 32); settings: 3 weeks after spraying
Experimental: as §1, §5, §6

Mustard [11] = test: Post-emergence herbicidal activity (Example 32); settings: 3 weeks after spraying
Experimental: as §1, §5, §6

Ryegrass [12] = test: Post-emergence herbicidal activity (Example 32); settings: 3 weeks after spraying
Experimental: as §1, §5, §6

Sunflower [13] = test: Post-emergence herbicidal activity (Example 32); settings: 3 weeks after spraying
Experimental: as §1, §5, §6

Wild Oats [14] = test: Post-emergence herbicidal activity (Example 32); settings: 3 weeks after spraying
Experimental: as §1, §5, §6

Compound	damage to plants, Rg (Ryegrass [1]; 1 kg/ha)	damage to plants, Rg (Ryegrass [1]; 5 kg/ha)	damage to plants, Wh (Wheat [2]; 1 kg/ha)	damage to plants, Wh (Wheat [2]; 5 kg/ha)	damage to plants, Ip (Ipomea [3]; 1 kg/ha)	damage to plants, Ip (Ipomea [3]; 5 kg/ha)	damage to plants, Jm (Japanese millet [4]; 1 kg/ha)	damage to plants, Jm (Japanese millet [4]; 5 kg/ha)	damage to plants, Ms (Mustard [5]; 1 kg/ha)	damage to plants, Ms (Mustard [5]; 5 kg/ha)	damage to plants, Sf (Sunflower [6]; 1 kg/ha)	damage to plants, Sf (Sunflower [6]; 5 kg/ha)	damage to plants, Ot (Wild Oats [7]; 1 kg/ha)	damage to plants, Ot (Wild Oats [7]; 5 kg/ha)	damage to plants, Wh (Wheat [8]; 1 kg/ha)	damage to plants, Wh (Wheat [8]; 5 kg/ha)	damage to plants, Jm (Japanese millet [10]; 1 kg/ha)	damage to plants, Ms (Mustard [11]; 1 kg/ha)	damage to plants, Rg (Ryegrass [12]; 1 kg/ha)	damage to plants, Ot (Wild Oats [14]; 1 kg/ha)	also measured
COC(=O)C(C)Oc1ccc(N(C)c2ccc(Cl)cc2)cc1 (stereo not drawn) [Compound 13, Methyl 2-[4-(4-chloro-N-methylanilino)phenoxy]-propionate]	0 (0 represents from 0 to 25% damage)	1	0 (0 represents from 0 to 25% damage)	0 (0 represents from 0 to 25% damage)	0 (0 represents from 0 to 25% damage)	0 (0 represents from 0 to 25% damage)	0 (0 represents from 0 to 25% damage)	0 (0 represents from 0 to 25% damage)	0 (0 represents from 0 to 25% damage)	0 (0 represents from 0 to 25% damage)	0 (0 represents from 0 to 25% damage)	0 (0 represents from 0 to 25% damage)	0 (0 represents from 0 to 25% damage)	0 (0 represents from 0 to 25% damage)	0 (0 represents 0 to 25% damage)	0 (0 represents 0 to 25% damage)	3 (3 represents 75 to 99% kill)	0 (0 represents 0 to 25% damage)	1	0 (0 represents 0 to 25% damage)	damage to plants, Ip (Ipomea [9]; 1 kg/ha): 0 (0 represents 0 to 25% damage); damage to plants, Ip (Ipomea [9]; 5 kg/ha): 0 (0 represents 0 to 25% damage); damage to plants, Jm (Japanese millet [10]; 5 kg/ha): 3 (3 represents 75 to 99% kill); damage to plants, Ms (Mustard [11]; 5 kg/ha): 0 (0 represents 0 to 25% damage); damage to plants, Rg (Ryegrass [12]; 5 kg/ha): 3 (3 represents 75 to 99% kill); damage to plants, Sf (Sunflower [13]; 1 kg/ha): 0 (0 represents 0 to 25% damage); damage to plants, Sf (Sunflower [13]; 5 kg/ha): 0 (0 represents 0 to 25% damage); damage to plants, Ot (Wild Oats [14]; 5 kg/ha): 0 (0 represents 0 to 25% damage)
COC(=O)C(C)Oc1ccc(Nc2ccc(Cl)cc2Cl)cc1 (stereo not drawn) [Compound 22]	–	2	–	0 (0 represents from 0 to 25% damage)	–	0 (0 represents from 0 to 25% damage)	–	2	–	0 (0 represents from 0 to 25% damage)	–	0 (0 represents from 0 to 25% damage)	–	0 (0 represents from 0 to 25% damage)	1	3 (3 represents 75 to 99% kill)	3+ (3+ represents 100% kill)	1	3+ (3+ represents 100% kill)	2	damage to plants, Jm (Japanese millet [10]; 5 kg/ha): 3+ (3+ represents 100% kill); damage to plants, Ms (Mustard [11]; 5 kg/ha): 3+ (3+ represents 100% kill); damage to plants, Rg (Ryegrass [12]; 5 kg/ha): 3+ (3+ represents 100% kill); damage to plants, Ot (Wild Oats [14]; 5 kg/ha): 3+ (3+ represents 100% kill)
COC(=O)C(C)Oc1ccc(Nc2ccc(Br)cc2N)cc1 (stereo not drawn) [Compound 32, Methyl 2-[4-(2-amino-4-bromoanilino)phenoxy] propionate]	–	2	–	1	–	0 (0 represents from 0 to 25% damage)	–	3 (3 represents 75 to 99% kill)	–	0 (0 represents from 0 to 25% damage)	–	0 (0 represents from 0 to 25% damage)	–	0 (0 represents from 0 to 25% damage)	–	–	–	–	–	–	–
CCCCSC(=O)C(C)Oc1ccc(Nc2ccc(C(F)(F)F)cc2[N+](=O)[O-])cc1 (stereo not drawn) [Compound 62]	2	–	0 (0 represents from 0 to 25% damage)	–	0 (0 represents from 0 to 25% damage)	–	2	–	0 (0 represents from 0 to 25% damage)	–	0 (0 represents from 0 to 25% damage)	–	1	–	3 (3 represents 75 to 99% kill)	–	3+ (3+ represents 100% kill)	0 (0 represents 0 to 25% damage)	3+ (3+ represents 100% kill)	3 (3 represents 75 to 99% kill)	damage to plants, Ip (Ipomea [9]; 1 kg/ha): 0 (0 represents 0 to 25% damage); damage to plants, Sf (Sunflower [13]; 1 kg/ha): 0 (0 represents 0 to 25% damage)
